Experiment [1] has as its system serotonin uptake by synaptosomes from rat brain. Kind of experiment: In vitro blockade of serotonin uptake by synaptosomes from rat brain. The class given is biochemical. The note with it: Table 1, scaffold drawing 3; serotonin 0.1 μM. From the text: (§1) This blockade is shown both in vitro with radioactive labelled compounds to determine the amount of monoamine uptake by synaptosomes from rat brain, and in vivo by a variety of methods. Among the physiologically active monoamines whose uptake is blocked by the compounds of this invention are included serotonin, norepinephrine and dopamine (3,4-dihydroxyphenylethylamine). […] Tables 1 and 2 which follow set forth the results of some of the in vitro determinations of the blockage of monoamine uptake by the compounds of this invention. In the tables, column 1 gives the R substituent on the 3-phenylpropylamine and columns 2-4, the concentration in micrograms per ml. that blocks the uptake of a particular amine by 50 percent for the amines--norephinephrine, serotonin, and dopamine. At the head of each column is given the concentration of the particular monoamine used in the experiment.

Experiment [2] relates to hypothermia induced by the injection of apomorphine. Kind of experiment: Apomorphine hypothermia antagonism test. It counts as in vivo, mice. The note with it: for Activity in antagonism of apomorphine hypothermia: in words. The protocol: The apomorphine hypothermia antagonism test is carried out as follows: mice are injected with a dose of apomorphine known to reduce body temperature approximately 4° C. […] The degree of antagonism is expressed as a percent reduction (as compared with controls) of the temperature decrease produced by the injection of the apomorphine. The reserpine hypothermia reversal test is carried out as follows: groups of mice are injected with reserpine and 16.5 hours later are injected intraperitoneally with graded doses of the drug, a different dose level being given to each group of mice. Temperatures are measured at 1 hour after injection of the drug under test and again the effectiveness of the drug is expressed as a percentage decrease in the hypothermia induced by the injection of reserpine as compared with the control group. In the tablets which follow, Table 4 gives the results in the apomorphine antagonism and reserpine reversal hypothermia tests for the secondary amines of this invention. In the table, the first column gives the substituent attached to the oxygen atom at the 3 position of the propylamine chain; columns 2 to 4 the percent antagonism against apomorphine hypothermia at dose levels of 0.3, 1 and 3 mg./kg. and columns 5-7 the percent reversal of reserpine hypothermia at the same dose levels.

The test system of experiment [3] is hypothermia induced by the injection of reserpine. As to the kind of experiment: Reserpine hypothermia reversal test. The note with it: for inhibition in vivo at 1 mg/kg / inhibition in vivo at 3 mg/kg / inhibition in vivo at 10 mg/kg / inhibition in vivo at 0.3 mg/kg: Mus musculus, ip, 1 h, Post-60 min., mice, read-out: Percent Antagonism Reserpine; for inhibition in vivo at 1 mg/kg: 1 mg./kg. intraperitoneally; for inhibition in vivo at 3 mg/kg: 3 mg./kg. intraperitoneally; for inhibition in vivo at 10 mg/kg: 10 mg./kg. intraperitoneally; for Activity in reversal of reserpine hypothermia: in words; for inhibition in vivo at 0.3 mg/kg: .3 mg./kg. intraperitoneally. It counts as in vivo, mice. The protocol: The apomorphine hypothermia antagonism test is carried out as follows: mice are injected with a dose of apomorphine known to reduce body temperature approximately 4° C. The compound under test is injected 1/2 hour before the injection of the apomorphine and the temperatures measured 1/2 hour after injection. The degree of antagonism is expressed as a percent reduction (as compared with controls) of the temperature decrease produced by the injection of the apomorphine. The reserpine hypothermia reversal test is carried out as follows: groups of mice are injected with reserpine and 16.5 hours later are injected intraperitoneally with graded doses of the drug, a different dose level being given to each group of mice. Temperatures are measured at 1 hour after injection of the drug under test and again the effectiveness of the drug is expressed as a percentage decrease in the hypothermia induced by the injection of reserpine as compared with the control group. In the tablets which follow, Table 4 gives the results in the apomorphine antagonism and reserpine reversal hypothermia tests for the secondary amines of this invention. In the table, the first column gives the substituent attached to the oxygen atom at the 3 position of the propylamine chain; columns 2 to 4 the percent antagonism against apomorphine hypothermia at dose levels of 0.3, 1 and 3 mg./kg. and columns 5-7 the percent reversal of reserpine hypothermia at the same dose levels.

Experiment [4] concerns norepinephrine uptake by synaptosomes from rat brain. As to the kind of experiment: In vitro blockade of norepinephrine uptake by synaptosomes from rat brain. It counts as biochemical. The note with it: Table 1, scaffold drawing 3; norepinephrine 0.48 μM.
From the text: as §1

Experiment [5] deals with dopamine uptake by synaptosomes from rat brain. Kind of experiment: In vitro blockade of dopamine uptake by synaptosomes from rat brain. The note with it: Table 1, scaffold drawing 3; dopamine 0.2 μM. The class given is biochemical.
From the text: as §1

The mark [6] stands for this setting: Mus musculus, Table 5, dimethylamino compounds, Pre-30 min., mice, read-out: Percent Antagonism Apomorphine.
The mark [7] stands for this setting: Table 5, dimethylamino compounds.
Setting [8] is: Mus musculus, Table 4, secondary amines, Pre-30 min., mice, read-out: Percent Antagonism Apomorphine.

Like-named read-outs stand apart in the source and are kept apart here.

As to `CN(C)CCC(Oc1ccccc1)c1ccccc1` (stereo not shown) [phenyl], in experiment [1], the “Concentration that blocks 50% of amine uptake, Serotonin” value was “.6 mcq./ml”. Also, in experiment [2] (setting [6]), the inhibition in vivo at 3 mg/kg amounted to 3% and the inhibition in vivo at 10 mg/kg turned out to be 54%. In experiment [3] (setting [7]), the inhibition in vivo at 1 mg/kg was 20%, the inhibition in vivo at 3 mg/kg was found to be 20% and the inhibition in vivo at 10 mg/kg came to 49%. Further, the “Concentration that blocks 50% of amine uptake, Norepinephrine” value in experiment [4] was 1 mcq./ml. The “Concentration that blocks 50% of amine uptake, Dopamine” value in experiment [5] is “.3 mcq./ml”.

With `CN(C)CCC(Oc1ccc2ccccc2c1)c1ccccc1.O=C(O)C(=O)O` (stereo not drawn) [β-naphthyl, N,N-dimethyl 3-(β-naphthyloxy)-3-phenylpropylamine oxalate], the “Concentration that blocks 50% of amine uptake, Serotonin” value in experiment [1] is recorded as 1 mcq./ml. For the same compound, in experiment [4], the “Concentration that blocks 50% of amine uptake, Norepinephrine” value was above 100 mcq./ml. The “Concentration that blocks 50% of amine uptake, Dopamine” value in experiment [5] came to 100 mcq./ml.

As for `CN(C)CCCN1c2ccccc2CCc2ccccc21` [imipramine, reference compound], the “Reduction of apomorphine hypothermia” value in experiment [2] (10 mg./kg. dose, measured 60 minutes after injection of the apomorphine) amounted to 100%. Further, the “Activity in antagonism of apomorphine hypothermia” value in experiment [2] is “active”. Also, the “Activity in reversal of reserpine hypothermia” value in experiment [3] is recorded as “active”.

With `Cc1cc(F)ccc1OC(CCN(C)C)c1ccccc1.O=C(O)C(=O)O` (stereo not shown) [4-fluoro-o-tolyl, N,N-dimethyl 3-(p-fluoro-o-tolyloxy)-3-phenylpropylamine oxalate], the “Concentration that blocks 50% of amine uptake, Serotonin” value in experiment [1] is “.6 mcq./ml”. In experiment [4], the “Concentration that blocks 50% of amine uptake, Norepinephrine” value turned out to be 2.5 mcq./ml. Moreover, in experiment [5], the “Concentration that blocks 50% of amine uptake, Dopamine” value came out at 40 mcq./ml.

For `Cc1ccccc1OC(CCN(C)C)c1ccccc1` (stereo not shown) [o-tolyl], in experiment [2] (setting [6]), the inhibition in vivo at 3 mg/kg is 11% and the inhibition in vivo at 10 mg/kg was determined as 94%.

`COc1cccc(OC(CCN(C)C)c2ccccc2)c1.O=C(O)C(=O)O` (stereo not shown) [m-methoxyphenyl, N,N-dimethyl 3-phenyl-3-(m-methoxyphenoxy)propylamine oxalate]: in experiment [1], the “Concentration that blocks 50% of amine uptake, Serotonin” value is on record as “.08 mcq./ml”. Also, in experiment [4], the “Concentration that blocks 50% of amine uptake, Norepinephrine” value is given as “.2 mcq./ml”. Besides, in experiment [5], the “Concentration that blocks 50% of amine uptake, Dopamine” value is recorded as “.5 mcq./ml”.

Consider `CN(C)CCC(Oc1ccc(F)cc1)c1ccccc1` (stereo not shown) [p-fluorophenyl], for which, in experiment [2] (setting [6]), the inhibition in vivo at 1 mg/kg came out at 26%, the inhibition in vivo at 3 mg/kg is 63% and the inhibition in vivo at 10 mg/kg is 116%. In experiment [3] (Table 4, secondary amines), the inhibition in vivo at 1 mg/kg worked out at 39%, the inhibition in vivo at 3 mg/kg stood at 32% and the inhibition in vivo at 0.3 mg/kg came to 7%. Moreover, in experiment [3] (setting [7]), the inhibition in vivo at 1 mg/kg is 10%, the inhibition in vivo at 3 mg/kg came out at 24%, the inhibition in vivo at 10 mg/kg was 49% and the inhibition in vivo at 0.3 mg/kg amounted to 14%.

On to `COc1ccc(OC(CCN(C)C)c2ccccc2)cc1` (stereo not shown) [p-anisyl], for which, in experiment [2] (setting [6]), the inhibition in vivo at 10 mg/kg was 25%.

`COc1ccccc1OC(CCN(C)C)c1ccccc1` (stereo not shown) [o-anisyl]: in experiment [2] (setting [6]), the inhibition in vivo at 1 mg/kg came out at 11%, the inhibition in vivo at 3 mg/kg is 30% and the inhibition in vivo at 10 mg/kg is 61%.

As to `CN(C)CCC(Oc1cccc(Cl)c1)c1ccccc1` (stereo not shown) [m-chlorophenyl], in experiment [2] (setting [6]), the inhibition in vivo at 1 mg/kg turned out to be 0%, the inhibition in vivo at 3 mg/kg was determined as 13% and the inhibition in vivo at 10 mg/kg came out at 66%.

In the case of `CN(C)CCC(Oc1cccc(C(F)(F)F)c1)c1ccccc1.O=C(O)C(=O)O` (stereo not shown) [m-trifluoromethylphenyl, N,N-dimethyl 3-phenyl-3-(m-trifluoromethylphenoxy) propylamine oxalate], in experiment [1], the “Concentration that blocks 50% of amine uptake, Serotonin” value was “.18 mcq./ml”. Further, the “Concentration that blocks 50% of amine uptake, Norepinephrine” value in experiment [4] was 8 mcq./ml. Moreover, the “Concentration that blocks 50% of amine uptake, Dopamine” value in experiment [5] is above 100 mcq./ml.

In the case of `CNCCC=C1c2ccccc2CCc2ccccc21` [nortriptyline, reference compound], the “Activity in antagonism of apomorphine hypothermia” value in experiment [2] is listed as “active”. In addition, in experiment [3], the “Activity in reversal of reserpine hypothermia” value was “active”.

Consider `CN(C)CCC(Oc1ccccc1Br)c1ccccc1.O=C(O)C(=O)O` (stereo not shown) [o-bromophenyl, N,N-dimethyl 3-(o-bromophenoxy)-3-phenylpropylamine oxalate], for which the “Concentration that blocks 50% of amine uptake, Serotonin” value in experiment [1] was “.1 mcq./ml”. Moreover, in experiment [2] (setting [6]), the inhibition in vivo at 1 mg/kg came to 19%, the inhibition in vivo at 3 mg/kg is 40% and the inhibition in vivo at 10 mg/kg turned out to be 47%. In experiment [3] (setting [7]), the inhibition in vivo at 3 mg/kg is 18% and the inhibition in vivo at 10 mg/kg is 30%. The “Concentration that blocks 50% of amine uptake, Dopamine” value in experiment [5] was determined as 5 mcq./ml.

For the compound `CN(C)CCC(Oc1ccccc1F)c1ccccc1` (stereo not shown) [o-fluorophenyl], in experiment [2] (setting [6]), the inhibition in vivo at 1 mg/kg is -10%, the inhibition in vivo at 3 mg/kg amounted to 11% and the inhibition in vivo at 10 mg/kg turned out to be 31%.

Consider `Cc1cccc(OC(CCN(C)C)c2ccccc2)c1.O=C(O)C(=O)O` (stereo not shown) [m-tolyl, N,N-dimethyl 3-phenyl-3-(m-tolyloxy)propylamine oxalate], for which, in experiment [1], the “Concentration that blocks 50% of amine uptake, Serotonin” value is “.7 mcq./ml”. The “Concentration that blocks 50% of amine uptake, Norepinephrine” value in experiment [4] came to 12 mcq./ml. In addition, in experiment [5], the “Concentration that blocks 50% of amine uptake, Dopamine” value was above 0 mcq./ml.

Turning to `CN(C)CCC(Oc1ccccc1C(C)(C)C)c1ccccc1.O=C(O)C(=O)O` (stereo not shown) [o-t-butylphenyl, N,N-dimethyl 3-phenyl-3-(o-t-butylphenoxy)propylamine oxalate], the “Concentration that blocks 50% of amine uptake, Serotonin” value in experiment [1] is 40 mcq./ml. Further, the “Concentration that blocks 50% of amine uptake, Norepinephrine” value in experiment [4] stood at 1.5 mcq./ml. Also, in experiment [5], the “Concentration that blocks 50% of amine uptake, Dopamine” value is above 100 mcq./ml.

On to `CN(C)CCC(Oc1ccc(Cl)cc1)c1ccccc1` (stereo not shown) [p-chlorophenyl], for which, in experiment [2] (setting [8]), the inhibition in vivo at 1 mg/kg was 29% and the inhibition in vivo at 3 mg/kg came out at 37%. Besides, in experiment [2] (Mus musculus, Table 4, secondary amines, .3 mg./kg., Pre-30 min., mice, read-out: Percent Antagonism Apomorphine), the inhibition in vivo at 0.3 mg/kg came out at 32%. Moreover, in experiment [2] (setting [6]), the inhibition in vivo at 1 mg/kg is 7%, the inhibition in vivo at 3 mg/kg turned out to be 43% and the inhibition in vivo at 10 mg/kg came out at 85%.

For the compound `CN(C)CCC(Oc1ccc(C(F)(F)F)cc1)c1ccccc1` (stereo not shown) [p-trifluoromethylphenyl], in experiment [2] (setting [6]), the inhibition in vivo at 10 mg/kg turned out to be 24%.

The values are drawn from patent US4018895A, “Aryloxyphenylpropylamines in treating depression” (Eli Lilly and Company, priority 1975, dated 1977).
